Test results reported in PMC4560413, “Ethyl Pyruvate Emerges as a Safe and Fast Acting Agent against Trypanosoma brucei by Targeting Pyruvate Kinase Activity” (PLoS ONE, 2015).

Biological target: T1, pyruvate kinase (PK-1 from rabbit muscle) (Oryctolagus cuniculus, UniProt P11974)
T1 construct: gene PKM; purified PK-1 from rabbit muscle
Test: enzyme kinetics, ATP production by luminescence (CellTiter-Glo), competitive model fit
Assay type: biochemical

T1 sequence (P11974 2-531): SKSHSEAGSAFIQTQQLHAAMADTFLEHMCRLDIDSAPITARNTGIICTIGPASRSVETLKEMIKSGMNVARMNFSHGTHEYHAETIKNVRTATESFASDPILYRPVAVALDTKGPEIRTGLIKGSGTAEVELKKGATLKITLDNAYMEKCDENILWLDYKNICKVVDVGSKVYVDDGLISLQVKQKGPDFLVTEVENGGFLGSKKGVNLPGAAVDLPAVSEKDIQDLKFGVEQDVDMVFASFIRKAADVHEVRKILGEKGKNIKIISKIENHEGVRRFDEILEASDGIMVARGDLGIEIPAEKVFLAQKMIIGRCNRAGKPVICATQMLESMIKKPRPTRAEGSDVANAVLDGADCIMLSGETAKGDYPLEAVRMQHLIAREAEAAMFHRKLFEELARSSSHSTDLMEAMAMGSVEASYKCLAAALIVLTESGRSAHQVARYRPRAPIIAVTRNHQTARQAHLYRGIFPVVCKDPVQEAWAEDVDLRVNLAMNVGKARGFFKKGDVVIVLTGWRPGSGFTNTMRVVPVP

- Ki: 3 ± 0.29 mM
SMILES: CCOC(=O)C(C)=O [ethyl pyruvate]
